Like-named read-outs stand apart in the source and are kept apart here.
Test system: HCT-116 cells
Test: BrdU incorporation assay
Format: cell-based
Conditions: Homo sapiens, read-out: Brd U, concentration that inhibits BrdU incorporation by 50%
Summary of the method: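 HCT-116 cells were exposed to compound, then analysed at 24, 48 and 72 h; 10 μM BrdU (final) was added for 16-18 h at 37° C. After fixation, permeabilisation and DNase treatment, BrdU incorporation was read by flow cytometry; values are compound concentrations (μM) giving 50% inhibition.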

Q: How did the IC50 (HCT-116, 24 h) turn out when `CC(C)c1nn(-c2c(Cl)cccc2Cl)c2nc(Cc3ccc(O)c(CN4CCN(C(C)C)CC4)c3)[nH]c(=O)c12` [Compound C] was run?
A: < 100 nM

Q: What about the IC50 (HCT-116, 48 h) of the same compound?
A: < 100 nM

Source: US7605175B2, “Inhibitors of cyclin-dependent kinases, compositions and uses related thereto” (GPC Biotech AG, priority 2001, dated 2009)
